Tests used:
Type in all cases: functional
Conditions in all cases: read-out: IZ
[1] = test system: Bacillus subtilis; test: Antimicrobial activity against Bacillus subtilis at 50 ug/disk
[2] = test system: Rhizomucor miehei; test: Antimicrobial activity against Mucor miehei at 50 ug/disk
[3] = test system: Lachnellula; test: Inhibition of DHN-melanin biosynthesis in Lachnellula sp. A32-89 assessed as pigment inhibition zone at 50 ug/disk by agar diffusion assay

In the case of `C/C=C/C1=CC2=CC(=O)[C@@]3(C)OC(=O)C(C(C)=O)=C3C2=CO1` [TRICHOFLECTIN], the zone of inhibition at 50 µg/disc [1] is reported as 23 mm, the zone of inhibition at 50 µg/disc [2] is reported as 23 mm and the zone of inhibition at 50 µg/disc [3] is reported as 19 mm.

`CC1=CC2=C(CO1)C(=O)c1c(O)cc(O)cc1C2=O` was tested, and the zone of inhibition at 50 µg/disc [3] was 14 mm.

With `COc1cc(O)c2c(c1)C(=O)C1=C(COC(C)=C1)C2=O` the zone of inhibition at 50 µg/disc [3] was 14 mm.

Reference: ChEMBL document CHEMBL1150870, “Trichoflectin, a bioactive azaphilone from the ascomycete Trichopezizella nidulus” (1998)
